Measurements published in ChEMBL document CHEMBL3885881, “DrugMatrix”.

Organism: Rattus norvegicus
Assay: DrugMatrix - Regimen: Daily Repeat
Type: toxicity, organism-based, Sprague-Dawley
Set-up: regimen Daily Repeat, gender Male, age 6-8 weeks
Details: in vivo, po, route oral GAVAGE, vehicle .5 % CMC; for ABSOLUTE BASOPHIL / ABSOLUTE EOSINOPHIL / ABSOLUTE LYMPHOCYTE / ABSOLUTE MONOCYTE / ABSOLUTE SEGMENTED NEUTROPHIL / BASOPHIL / EOSINOPHIL / ERYTHROCYTE COUNT / HEMATOCRIT / HEMOGLOBIN / LEUKOCYTE COUNT / LYMPHOCYTE / MEAN CORPUSCULAR HEMOGLOBIN / MEAN CORPUSCULAR HEMOGLOBIN CONCENTRATION / MEAN CORPUSCULAR VOLUME / MONOCYTE / NEUTROPHIL / NUCLEATED RED BLOOD CELLS / PLATELET COUNT: tissue Blood; for ALANINE AMINOTRANSFERASE / ALBUMIN / ALKALINE PHOSPHATASE / ASPARTATE AMINOTRANSFERASE / BLOOD UREA NITROGEN / CARBON DIOXIDE / CHLORIDE / CHOLESTEROL / CREATINE PHOSPHOKINASE / CREATININE / GLUCOSE / LACTATE DEHYDROGENASE / LIPASE / PHOSPHORUS / POTASSIUM / SODIUM / TOTAL BILIRUBIN / TOTAL PROTEIN / URIC ACID: tissue Plasma
[1] = 50 mg/kg, 120 h, dose level Low, time 5 day
[2] = 1500 mg/kg, 72 h, dose level High, time 3 day
[3] = 1500 mg/kg, 120 h, dose level High, time 5 day

CNC(=C[N+](=O)[O-])NCCSCc1ccc(CN(C)C)o1 [RANITIDINE]
ABSOLUTE BASOPHIL [1]: 0 CELLS/uL | ABSOLUTE EOSINOPHIL [1]: 64.67 CELLS/uL | ABSOLUTE LYMPHOCYTE [1]: 14230.33 CELLS/uL | ABSOLUTE MONOCYTE [1]: 0 CELLS/uL | ABSOLUTE SEGMENTED NEUTROPHIL [1]: 1138.33 CELLS/uL | BASOPHIL [1]: 0% | EOSINOPHIL [1]: 0.33% | ERYTHROCYTE COUNT [1]: 5.36 x10E6/uL | HEMATOCRIT [1]: 34.53% | HEMOGLOBIN [1]: 13.67 G/DL | LEUKOCYTE COUNT [1]: 15.43 x10E3/uL | LYMPHOCYTE [1]: 92.67% | MEAN CORPUSCULAR HEMOGLOBIN [1]: 25.53 pg | MEAN CORPUSCULAR HEMOGLOBIN CONCENTRATION [1]: 39.6 G/DL | MEAN CORPUSCULAR VOLUME [1]: 64.47 fL | MONOCYTE [1]: 0% | NEUTROPHIL [1]: 7% | NUCLEATED RED BLOOD CELLS [1]: 0 /100WBC | PLATELET COUNT [1]: 1360.67 x10E3/uL | ALANINE AMINOTRANSFERASE [1]: 42 u/L | ALBUMIN [1]: 4.17 G/DL | ALKALINE PHOSPHATASE [1]: 395 u/L | ASPARTATE AMINOTRANSFERASE [1]: 70.33 u/L | BLOOD UREA NITROGEN [1]: 17 mg/dL | CARBON DIOXIDE [1]: 28 mmol/L | CHLORIDE [1]: 102 MEQ/L | CHOLESTEROL [1]: 50.33 mg/dL | CREATINE PHOSPHOKINASE [1]: 245.67 u/L | CREATININE [1]: 0.19 mg/dL | GLUCOSE [1]: 148 mg/dL | LACTATE DEHYDROGENASE [1]: 98 u/L | LIPASE [1]: 8.67 u/L | PHOSPHORUS [1]: 12.1 mg/dL | POTASSIUM [1]: 6.46 MEQ/L | SODIUM [1]: 145.6 MEQ/L | TOTAL BILIRUBIN [1]: 0.2 mg/dL | TOTAL PROTEIN [1]: 6 G/DL | URIC ACID [1]: 1.33 mg/dL | ABSOLUTE BASOPHIL [2]: 0 CELLS/uL | ABSOLUTE EOSINOPHIL [2]: 49.67 CELLS/uL | ABSOLUTE LYMPHOCYTE [2]: 15225.67 CELLS/uL | ABSOLUTE MONOCYTE [2]: 162.67 CELLS/uL | ABSOLUTE SEGMENTED NEUTROPHIL [2]: 1162 CELLS/uL | BASOPHIL [2]: 0% | EOSINOPHIL [2]: 0.33% | ERYTHROCYTE COUNT [2]: 5.61 x10E6/uL | HEMATOCRIT [2]: 35.4% | HEMOGLOBIN [2]: 14 G/DL | LEUKOCYTE COUNT [2]: 16.6 x10E3/uL | LYMPHOCYTE [2]: 91.67% | MEAN CORPUSCULAR HEMOGLOBIN [2]: 24.97 pg | MEAN CORPUSCULAR HEMOGLOBIN CONCENTRATION [2]: 39.57 G/DL | MEAN CORPUSCULAR VOLUME [2]: 63.03 fL | MONOCYTE [2]: 1% | NEUTROPHIL [2]: 7% | NUCLEATED RED BLOOD CELLS [2]: 0.33 /100WBC | PLATELET COUNT [2]: 1234.33 x10E3/uL | ALANINE AMINOTRANSFERASE [2]: 53 u/L | ALBUMIN [2]: 4.17 G/DL | ALKALINE PHOSPHATASE [2]: 349.67 u/L | ASPARTATE AMINOTRANSFERASE [2]: 86.67 u/L | BLOOD UREA NITROGEN [2]: 14.67 mg/dL | CARBON DIOXIDE [2]: 31 mmol/L | CHLORIDE [2]: 101.33 MEQ/L | CHOLESTEROL [2]: 68 mg/dL | CREATINE PHOSPHOKINASE [2]: 268.67 u/L | CREATININE [2]: 0.18 mg/dL | GLUCOSE [2]: 146 mg/dL | LACTATE DEHYDROGENASE [2]: 319.67 u/L | LIPASE [2]: 9.33 u/L | PHOSPHORUS [2]: 12.6 mg/dL | POTASSIUM [2]: 7.13 MEQ/L | SODIUM [2]: 145.5 MEQ/L | TOTAL BILIRUBIN [2]: 0.17 mg/dL | TOTAL PROTEIN [2]: 5.6 G/DL | URIC ACID [2]: 1.37 mg/dL | ABSOLUTE BASOPHIL [3]: 0 CELLS/uL | ABSOLUTE EOSINOPHIL [3]: 61.33 CELLS/uL | ABSOLUTE LYMPHOCYTE [3]: 16689.33 CELLS/uL | ABSOLUTE MONOCYTE [3]: 42 CELLS/uL | ABSOLUTE SEGMENTED NEUTROPHIL [3]: 1274 CELLS/uL | BASOPHIL [3]: 0% | EOSINOPHIL [3]: 0.33% | ERYTHROCYTE COUNT [3]: 6.18 x10E6/uL | HEMATOCRIT [3]: 38.9% | HEMOGLOBIN [3]: 15.3 G/DL | LEUKOCYTE COUNT [3]: 18.07 x10E3/uL | LYMPHOCYTE [3]: 92.67% | MEAN CORPUSCULAR HEMOGLOBIN [3]: 24.8 pg | MEAN CORPUSCULAR HEMOGLOBIN CONCENTRATION [3]: 39.33 G/DL | MEAN CORPUSCULAR VOLUME [3]: 63.03 fL | MONOCYTE [3]: 0.33% | NEUTROPHIL [3]: 6.67% | NUCLEATED RED BLOOD CELLS [3]: 0 /100WBC | PLATELET COUNT [3]: 1282 x10E3/uL | ALANINE AMINOTRANSFERASE [3]: 57.33 u/L | ALBUMIN [3]: 4.27 G/DL | ALKALINE PHOSPHATASE [3]: 392.67 u/L | ASPARTATE AMINOTRANSFERASE [3]: 93.67 u/L | BLOOD UREA NITROGEN [3]: 15.67 mg/dL | CARBON DIOXIDE [3]: 21.33 mmol/L | CHLORIDE [3]: 100.33 MEQ/L | CHOLESTEROL [3]: 69.67 mg/dL | CREATINE PHOSPHOKINASE [3]: 330.33 u/L | CREATININE [3]: 0.23 mg/dL | GLUCOSE [3]: 154 mg/dL | LACTATE DEHYDROGENASE [3]: 426.67 u/L | LIPASE [3]: 10 u/L | PHOSPHORUS [3]: 12.5 mg/dL | POTASSIUM [3]: 6.43 MEQ/L | SODIUM [3]: 144.53 MEQ/L | TOTAL BILIRUBIN [3]: 0.23 mg/dL | TOTAL PROTEIN [3]: 6.27 G/DL | URIC ACID [3]: 2.73 mg/dL
